Test results from the NIST ThermoML archive (doi:10.1016/j.jct.2016.01.012).

Assays:
[1] = xn = mol fraction of the nth substance listed; conditions: 100 kPa, Liquid; for viscosity: Falling or rolling sphere viscometry; for mass density: Vibrating tube method; for electrical conductivity: Direct current cell with electrodes
[2] = refractive index (Na D-line) (dimensionless); xn = mol fraction of the nth substance listed; conditions: 298.15 K, 100 kPa, Liquid, Standard Abbe refractometry

CN(C)C(=[NH2+])N(C)C.c1c[n-]cn1 [1,1,3,3-tetramethylguanidinium imidazol-1-ide] + O
[1]
Conditions | electrical conductivity [S/m] | mass density [kg/m3] | viscosity [mPa·s]
293.15 K, x1 = 0.0511 | – | 1023.04 | 3.157
293.15 K, x1 = 0.0991 | – | 1024.53 | 5.561
293.15 K, x1 = 0.207 | – | 1025.54 | 10.23
293.15 K, x1 = 0.3005 | – | 1019.92 | 14.29
293.15 K, x1 = 0.3834 | – | 1015.77 | 15.79
293.15 K, x1 = 0.4978 | – | 1010.24 | 16.03
293.15 K, x1 = 0.6356 | – | 1005.44 | 14.5
293.15 K, x1 = 0.8019 | – | 1001.45 | 12.12
293.15 K, x1 = 0.8984 | – | 999.17 | 10.19
293.15 K, x1 = 1 | – | 997.25 | 8.952
298.15 K, x1 = 0.002 | 1.524 | – | –
298.15 K, x1 = 0.003 | 1.88 | – | –
298.15 K, x1 = 0.0039 | 2.47 | – | –
298.15 K, x1 = 0.005 | 2.88 | – | –
298.15 K, x1 = 0.006 | 3.19 | – | –
298.15 K, x1 = 0.008 | 3.36 | – | –
298.15 K, x1 = 0.01 | 3.67 | – | –
298.15 K, x1 = 0.0149 | 3.96 | – | –
298.15 K, x1 = 0.0199 | 3.93 | – | –
298.15 K, x1 = 0.0299 | 3.72 | – | –
298.15 K, x1 = 0.0398 | 3.22 | – | –
298.15 K, x1 = 0.0499 | 2.7 | – | –
298.15 K, x1 = 0.0511 | – | 1019.97 | 2.519
298.15 K, x1 = 0.0599 | 2.31 | – | –
298.15 K, x1 = 0.0699 | 1.97 | – | –
298.15 K, x1 = 0.0799 | 1.711 | – | –
298.15 K, x1 = 0.0893 | 1.517 | – | –
298.15 K, x1 = 0.0991 | – | 1020.57 | 4.311
298.15 K, x1 = 0.0996 | 1.31 | – | –
298.15 K, x1 = 0.1495 | 0.767 | – | –
298.15 K, x1 = 0.1994 | 0.53 | – | –
298.15 K, x1 = 0.207 | – | 1021.21 | 7.645
298.15 K, x1 = 0.3005 | – | 1015.51 | 11.07
298.15 K, x1 = 0.3504 | 0.272 | – | –
298.15 K, x1 = 0.3834 | – | 1011.35 | 12.14
298.15 K, x1 = 0.4978 | – | 1005.81 | 12.35
298.15 K, x1 = 0.4989 | 0.215 | – | –
298.15 K, x1 = 0.6356 | – | 1001 | 11.28
298.15 K, x1 = 0.6512 | 0.195 | – | –
298.15 K, x1 = 0.8019 | – | 997.07 | 9.561
298.15 K, x1 = 0.8447 | 0.205 | – | –
298.15 K, x1 = 0.8984 | – | 994.72 | 8.186
298.15 K, x1 = 1 | 0.218 | 992.8 | 7.287
303.15 K, x1 = 0.0511 | – | 1016.67 | 2.148
303.15 K, x1 = 0.0991 | – | 1016.58 | 3.601
303.15 K, x1 = 0.207 | – | 1016.83 | 6.045
303.15 K, x1 = 0.3005 | – | 1011.06 | 8.853
303.15 K, x1 = 0.3834 | – | 1006.9 | 9.629
303.15 K, x1 = 0.4978 | – | 1001.35 | 9.809
303.15 K, x1 = 0.6356 | – | 996.54 | 9.023
303.15 K, x1 = 0.8019 | – | 992.72 | 7.768
303.15 K, x1 = 0.8984 | – | 990.26 | 6.72
303.15 K, x1 = 1 | – | 988.35 | 6.044
308.15 K, x1 = 0.0511 | – | 1013.28 | 1.854
308.15 K, x1 = 0.0991 | – | 1012.53 | 3.021
308.15 K, x1 = 0.207 | – | 1012.42 | 4.956
308.15 K, x1 = 0.3005 | – | 1006.59 | 7.201
308.15 K, x1 = 0.3834 | – | 1002.43 | 7.806
308.15 K, x1 = 0.4978 | – | 996.88 | 7.952
308.15 K, x1 = 0.6356 | – | 992.07 | 7.354
308.15 K, x1 = 0.8019 | – | 988.36 | 6.42
308.15 K, x1 = 0.8984 | – | 985.81 | 5.611
308.15 K, x1 = 1 | – | 983.9 | 5.097
313.15 K, x1 = 0.0511 | – | 1009.78 | 1.617
313.15 K, x1 = 0.0991 | – | 1008.4 | 2.592
313.15 K, x1 = 0.207 | – | 1007.97 | 4.126
313.15 K, x1 = 0.3005 | – | 1002.09 | 5.934
313.15 K, x1 = 0.3834 | – | 997.94 | 6.428
313.15 K, x1 = 0.4978 | – | 992.4 | 6.542
313.15 K, x1 = 0.6356 | – | 987.61 | 6.07
313.15 K, x1 = 0.8019 | – | 983.97 | 5.363
313.15 K, x1 = 0.8984 | – | 981.34 | 4.756
313.15 K, x1 = 1 | – | 979.46 | 4.358

[2]
Conditions | refractive index
x1 = 0.0511 | 1.3973
x1 = 0.0991 | 1.4278
x1 = 0.207 | 1.4589
x1 = 0.3005 | 1.4722
x1 = 0.3834 | 1.4787
x1 = 0.4978 | 1.485
x1 = 0.6356 | 1.4889
x1 = 0.8019 | 1.4922
x1 = 0.8984 | 1.4923
x1 = 1 | 1.4943
